Assay [1] can be described thus: Concentration required to inhibit the growth of chang liver cells. The class given is functional. The following applies: Homo sapiens.
Assay [2] deals with Mus musculus. The experiment in a line: Incidence of disease (mouse type II collagen) was scored as the percentage of animals within each experimental group that exhibited joint or limb inflammation on day 37 at intraperitoneal dose of 3 mg/kg. The class given is functional.
In assay [3] the test system is Mus musculus. The experiment in a line: Tested for antiinflammatory activity on mouse type II collagen arthritis as Paw swelling of all animals in each group on day 37 at intraperitoneal dose of 1.5 mg/kg. The class given is functional.
The test system of assay [4] is Mus musculus. The experiment in a line: Incidence of disease (mouse type II collagen) was scored as the percentage of animals within each experimental group that exhibited joint or limb inflammation on day 30 at intraperitoneal dose of 6 mg/kg. The class given is functional.
Assay [5] deals with Mus musculus. The assay is described as follows: Tested for antiinflammatory activity on mouse type II collagen arthritis as Paw swelling of all animals in each group on day 30 at intraperitoneal dose of 6 mg/kg. The class given is functional.
The subject of assay [6] is Mus musculus. The experiment in a line: Tested for antiinflammatory activity on mouse type II collagen arthritis as Paw swelling of all animals in each group on day 44 at intraperitoneal dose of 6 mg/kg. The class given is functional.
Assay [7] has as its system Mus musculus. The assay is described as follows: Tested for antiinflammatory activity on mouse type II collagen arthritis as Paw swelling of all animals in each group on day 30 at intraperitoneal dose of 3 mg/kg. The class given is functional.
The subject of assay [8] is Mus musculus. The assay is described as follows: Incidence of disease (mouse type II collagen) was scored as the percentage of animals within each experimental group that exhibited joint or limb inflammation on day 37 at intraperitoneal dose of 6 mg/kg. The class given is functional.
Assay [9] has as its system Mus musculus. The experiment in a line: Tested for antiinflammatory activity on mouse type II collagen arthritis as Paw swelling of all animals in each group on day 37 at intraperitoneal dose of 6 mg/kg. The class given is functional.
For assay [10], the system named is Mus musculus. The assay is described as follows: Incidence of disease (mouse type II collagen) was scored as the percentage of animals within each experimental group that exhibited joint or limb inflammation on day 30 at intraperitoneal dose of 1.5 mg/kg. The class given is functional.
The test system of assay [11] is Mus musculus. The experiment in a line: Tested for antiinflammatory activity on mouse type II collagen arthritis as Paw swelling of all animals in each group on day 23 at intraperitoneal dose of 3 mg/kg. The class given is functional.
In assay [12] the test system is Mus musculus. The experiment in a line: Incidence of disease (mouse type II collagen) was scored as the percentage of animals within each experimental group that exhibited joint or limb inflammation on day 44 at intraperitoneal dose of 1.5 mg/kg. The class given is functional.
Assay [13] concerns Mus musculus. The assay is described as follows: Tested for antiinflammatory activity on mouse type II collagen arthritis as Paw swelling of all animals in each group on day 37 at intraperitoneal dose of 3 mg/kg. The class given is functional.
For assay [14], the system named is Mus musculus. The assay is described as follows: Tested for antiinflammatory activity on mouse type II collagen arthritis as Paw swelling of all animals in each group on day 44 at intraperitoneal dose of 1.5 mg/kg. The class given is functional.
Assay [15] concerns Mus musculus. The experiment in a line: Incidence of disease (mouse type II collagen) was scored as the percentage of animals within each experimental group that exhibited joint or limb inflammation on day 23 at intraperitoneal dose of 3 mg/kg. The class given is functional.
The test system of assay [16] is Mus musculus. The experiment in a line: Tested for antiinflammatory activity on mouse type II collagen arthritis as Paw swelling of all animals in each group on day 23 at intraperitoneal dose of 1.5 mg/kg. The class given is functional.
Assay [17] deals with Mus musculus. The assay is described as follows: Incidence of disease (mouse type II collagen) was scored as the percentage of animals within each experimental group that exhibited joint or limb inflammation on day 44 at intraperitoneal dose of 6 mg/kg. The class given is functional.
Assay [18] has as its system Mus musculus. The assay is described as follows: Incidence of disease (mouse type II collagen) was scored as the percentage of animals within each experimental group that exhibited joint or limb inflammation on day 23 at intraperitoneal dose of 1.5 mg/kg. The class given is functional.
The test system of assay [19] is Mus musculus. The assay is described as follows: Incidence of disease (mouse type II collagen) was scored as the percentage of animals within each experimental group that exhibited joint or limb inflammation on day 23 at intraperitoneal dose of 6 mg/kg. The class given is functional.
Assay [20] deals with L1210. The experiment in a line: Concentration required to inhibit the growth of L1210 cells. The class given is functional, cell-based. The following applies: Mus musculus.
The test system of assay [21] is Mus musculus. The assay is described as follows: Incidence of disease (mouse type II collagen) was scored as the percentage of animals within each experimental group that exhibited joint or limb inflammation on day 37 at intraperitoneal dose of 1.5 mg/kg. The class given is functional.
In assay [22] the test system is Mus musculus. The experiment in a line: Tested for antiinflammatory activity on mouse type II collagen arthritis as Paw swelling of all animals in each group on day 44 at intraperitoneal dose of 3 mg/kg. The class given is functional.
The subject of assay [23] is Mus musculus. The experiment in a line: Incidence of disease (mouse type II collagen) was scored as the percentage of animals within each experimental group that exhibited joint or limb inflammation on day 30 at intraperitoneal dose of 3 mg/kg. The class given is functional.
For assay [24], the system named is Mus musculus. The experiment in a line: Tested for antiinflammatory activity on mouse type II collagen arthritis as Paw swelling of all animals in each group on day 23 at intraperitoneal dose of 6 mg/kg. The class given is functional.
In assay [25] the test system is Mus musculus. The experiment in a line: Incidence of disease (mouse type II collagen) was scored as the percentage of animals within each experimental group that exhibited joint or limb inflammation on day 44 at intraperitoneal dose of 3 mg/kg. The class given is functional.
Assay [26] concerns Mus musculus. The assay is described as follows: Tested for antiinflammatory activity on mouse type II collagen arthritis as Paw swelling of all animals in each group on day 30 at intraperitoneal dose of 1.5 mg/kg. The class given is functional.

Structures are written as SMILES.

`Cc1c(CNc2ccc(C(=O)NC(CCC(=O)O)C(=O)O)cc2)cnc2nc(N)nc(N)c12` (centres undefined): the figures for the IC50 in [1] and in assay [20] were 123 nM and 1.8 nM, respectively. Besides, the Animals in assay [2] was found to be 40%; in [4], 0%; in assay [8] it was 100%; in [10], 0%; in assay [12], 75%; in assay [15], 12%. Further, the Animals in assay [17] turned out to be 100%; in assay [18], 0%; in assay [19] it was 0%; in [21], 25%; in assay [23], 0%; in assay [25] it was 60%. In addition, the Paw swelling came out at 2.31 mm in assay [3]; 2.16 mm in [5]; 2.59 mm in [6]; 2.18 mm in [7]; 2.34 mm in [9]; 2.21 mm in [11]. Also, the Paw swelling turned out to be 2.42 mm in assay [13]; 2.55 mm in [14]; 2.13 mm in assay [16]; 2.53 mm in [22]; 2.12 mm in [24].

In the case of `Cc1c(CN(C)c2ccc(C(=O)NC(CCC(=O)O)C(=O)O)cc2)cnc2nc(N)nc(N)c12` (centres undefined), the figures for the IC50 in assay [1] and in assay [20] were 78 nM and 1.3 nM, respectively. Besides, the Animals in assay [2] is 50%; in assay [10], 12%; in assay [12] it was 62%; in assay [15], 0%; in assay [18], 0%; in assay [21], 50%. Also, the Animals in assay [23] is given as 50%; in assay [25], 100%. Further, the Paw swelling in assay [3] was 2.42 mm; in [7], 2.26 mm; in [11], 2.1 mm; in [13], 2.47 mm; in assay [14], 2.44 mm; in assay [26], 2.26 mm. Moreover, the Paw swelling in [22] worked out at 2.48 mm.

For `C#CCN(Cc1cnc2nc(N)nc(N)c2c1C)c1ccc(C(=O)NC(CCC(=O)O)C(=O)O)cc1` (centres undefined), the IC50 (in general, the concentration at which inhibition is half-maximal) was determined as 593 nM in assay [1] and 1.6 nM in assay [20]. For the same compound, the Animals is recorded as 50% in assay [2]; 25% in assay [4]; 62% in assay [8]; 25% in assay [10]; 62% in assay [12]; 0% in assay [15]. Also, the Animals amounted to 62% in assay [17]; 0% in assay [18]; 12% in assay [19]; 50% in [21]; 25% in [23]; 62% in assay [25]. Besides, the Paw swelling in assay [3] is 2.33 mm; in [5], 2.21 mm; in assay [6] it was 2.46 mm; in assay [7], 2.27 mm; in assay [9], 2.32 mm; in assay [11], 2.12 mm. Also, the Paw swelling stood at 2.37 mm in assay [14]; 2.31 mm in [26]; 2.16 mm in assay [16]; 2.38 mm in assay [22]; 2.23 mm in assay [24].

As for `Cc1c(CN(C)c2ccc(C(=O)NC(CCC(=O)O)C(=O)O)s2)cnc2nc(N)nc(N)c12` (centres undefined), the Animals was 0% in assay [2]; 0% in assay [4]; 12% in assay [8]; 0% in assay [10]; 50% in [12]; 0% in assay [15]. The Animals is on record as 38% in assay [17]; 0% in [18]; 0% in assay [19]; 12% in [21]; 0% in assay [23]; 57% in [25]. The Paw swelling in assay [3] was determined as 2.21 mm; in [5] it was 2.13 mm; in [7], 2.16 mm; in [9], 2.19 mm; in assay [11], 2.13 mm; in assay [13], 2.14 mm. In addition, the Paw swelling in assay [14] turned out to be 2.33 mm; in assay [16], 2.12 mm; in assay [22], 2.32 mm; in assay [24], 2.11 mm.
